The record followed here is patent US20230406885A1, “CYCLIC PEPTIDES FOR TRAPPING INTERLEUKIN-1 BETA” (MERCK SHARP & DOHME LLC, priority 2022, published 2023).

The target in this test is T1, Recombinant human IL-1β (Homo sapiens, UniProt P01584).
T1 construct: purchased BioLegend 579404
The experiment in a line: IL-6 assay in MRC5 cells: inhibition of IL-1β induced IL-6 secretion (AlphaLISA). The format is cell-based. To be noted: inhibition of IL-1β induced IL-6 secretion in MRC5 cells; read-out: MRC5 IC50. The method in brief:
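IL-1β at 2×EC80 in seeding medium (EMEM, 0.025% BSA) preincubated 1 h at ambient temperature with compound, then 3000 MRC5 cells/well added and incubated overnight at 37 °C, 5% CO2. IL-6 in conditioned medium quantified by AlphaLISA; IC50 from 4-parameter logistic fit.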
(In general: In Alpha technology, singlet oxygen from a donor bead excites a nearby acceptor bead.)

*1 amine or outer side, *2 acyl side, *3 side chain or, on linkers, in order; H or OH if unused. Where a SMILES comes first, the peptide text is derived from it. [ ]: non-standard residue; d: D form. Trp(βS-Me,4-F) = C[C@@H](c1c[nH]c2cccc(F)c12)[C@H](N)C(=O)O; Bip(4'-COOH) = N[C@@H](Cc1ccc(-c2ccc(C(=O)O)cc2)cc1)C(=O)O; X6 = O=C(O)C12CC(c3ccc(C[C@H](N[*:1])C(=O)[*:2])cc3)(C1)C2; X1 = CC(=O)N1CCN(c2ccc(C[C@H](N[*:1])C(=O)[*:2])cn2)CC1; 1Nal(3S-Me) = C[C@@H](c1cccc2ccccc12)[C@H](N)C(=O)O; Ala(indazol-1-yl) = N[C@@H](Cn1ncc2ccccc21)C(=O)O; Trp(6-Cl) = N[C@@H](Cc1c[nH]c2cc(Cl)ccc12)C(=O)O; Phe(4-COOH) = N[C@@H](Cc1ccc(C(=O)O)cc1)C(=O)O; Trp(7-F) = N[C@@H](Cc1c[nH]c2c(F)cccc12)C(=O)O; Trp(7-Me) = Cc1cccc2c(C[C@H](N)C(=O)O)c[nH]c12; h3Pal(5-CN) = N#Cc1cncc(CC[C@H](N)C(=O)O)c1; Pro(4R-NH2) = N[C@H]1CN[C@H](C(=O)O)C1; hTyr = N[C@@H](CCc1ccc(O)cc1)C(=O)O; hCha = N[C@@H](CCC1CCCCC1)C(=O)O; tBuAla = CC(C)(C)C[C@H](N)C(=O)O; Cha = N[C@@H](CC1CCCCC1)C(=O)O; dNle = CCCC[C@@H](N)C(=O)O; dDab = NCC[C@@H](N)C(=O)O; dNva = CCC[C@@H](N)C(=O)O; Orn = NCCC[C@H](N)C(=O)O; dNMeA = CN[C@H](C)C(=O)O

T1 sequence (P01584 117-269): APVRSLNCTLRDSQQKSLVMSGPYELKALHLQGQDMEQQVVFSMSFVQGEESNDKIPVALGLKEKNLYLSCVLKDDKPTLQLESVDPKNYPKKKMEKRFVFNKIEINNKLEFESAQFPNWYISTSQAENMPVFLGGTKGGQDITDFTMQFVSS

As a reminder, the IC50 is the midpoint of a concentration-inhibition curve. Regarding `CC(=O)N1CCN(c2ccc(C[C@@H]3NC(=O)[C@H](CCc4cncc(C#N)c4)NC(=O)[C@@H](CC(C)C)NC(=O)[C@H](CC(C)C)NC(=O)[C@H](CCCCN)NC(=O)[C@H](Cc4ccc(-c5ccc(C(=O)O)cc5)cc4)NC(=O)CNC(=O)[C@@H](C)N(C)C(=O)[C@H](CC(=O)O)NC(=O)[C@H]([C@@H](C)c4cccc5ccccc45)NC(=O)[C@@H]4C[C@@H](N)CN4C(=O)CNC(=O)[C@H](Cc4ccc(C(=O)O)cc4)NC(=O)[C@H](Cc4c[nH]c5ccccc45)NC3=O)cn2)CC1` [Example 178] (cyclo([X1]W[Phe(4-COOH)]G[Pro(4R-NH2)][1Nal(3S-Me)]D[dNMeA]G[Bip(4'-COOH)]KL[dL][h3Pal(5-CN)])), the IC50 was found to be 0.019 nM. On to `CCCC[C@H]1NC(=O)[C@H](CC(C)C)NC(=O)[C@H](CCCCN)NC(=O)[C@H](Cc2ccc(-c3ccc(C(=O)O)cc3)cc2)NC(=O)CNC(=O)[C@@H](C)N(C)C(=O)[C@H](CC(=O)O)NC(=O)[C@H]([C@@H](C)c2cccc3ccccc23)NC(=O)[C@@H]2C[C@@H](N)CN2C(=O)CNC(=O)[C@H](Cc2ccc(C(=O)O)cc2)NC(=O)[C@H](Cc2c[nH]c3ccccc23)NC(=O)[C@H](Cc2ccc(N3CCN(C(C)=O)CC3)nc2)NC(=O)[C@H](CCc2cncc(C#N)c2)NC1=O` [Example 179] (cyclo([X1]W[Phe(4-COOH)]G[Pro(4R-NH2)][1Nal(3S-Me)]D[dNMeA]G[Bip(4'-COOH)]KL[dNle][h3Pal(5-CN)])), for which the half-maximal inhibitory concentration (IC50) was 0.017 nM. Next, `CCC[C@H]1NC(=O)[C@H](CC(C)C)NC(=O)[C@H](CCCCN)NC(=O)[C@H](Cc2ccc(-c3ccc(C(=O)O)cc3)cc2)NC(=O)CNC(=O)[C@@H](C)N(C)C(=O)[C@H](CC(=O)O)NC(=O)[C@H]([C@@H](C)c2cccc3ccccc23)NC(=O)[C@@H]2C[C@@H](N)CN2C(=O)CNC(=O)[C@H](Cc2ccc(C(=O)O)cc2)NC(=O)[C@H](Cc2c[nH]c3ccccc23)NC(=O)[C@H](Cc2ccc(N3CCN(C(C)=O)CC3)nc2)NC(=O)[C@H](CCc2cncc(C#N)c2)NC1=O` [Example 180] (cyclo([X1]W[Phe(4-COOH)]G[Pro(4R-NH2)][1Nal(3S-Me)]D[dNMeA]G[Bip(4'-COOH)]KL[dNva][h3Pal(5-CN)])): 0.021 nM; `CC(=O)N1CCN(c2ccc(C[C@@H]3NC(=O)[C@H](CCc4cncc(C#N)c4)NC(=O)[C@@H](C)NC(=O)[C@H](CC(C)(C)C)NC(=O)[C@H](CCCCN)NC(=O)[C@H](Cc4ccc(-c5ccc(C(=O)O)cc5)cc4)NC(=O)CNC(=O)[C@@H](C)N(C)C(=O)[C@H](CC(=O)O)NC(=O)[C@H]([C@@H](C)c4cccc5ccccc45)NC(=O)[C@@H]4C[C@@H](N)CN4C(=O)CNC(=O)[C@H](Cc4ccc(C(=O)O)cc4)NC(=O)[C@H](Cc4c[nH]c5ccccc45)NC3=O)cn2)CC1` [Example 181] (cyclo([X1]W[Phe(4-COOH)]G[Pro(4R-NH2)][1Nal(3S-Me)]D[dNMeA]G[Bip(4'-COOH)]K[tBuAla][dA][h3Pal(5-CN)])): 0.015 nM; `CC(=O)N1CCN(c2ccc(C[C@@H]3NC(=O)[C@H](CCC4CCCCC4)NC(=O)[C@@H](C)NC(=O)[C@H](CC(C)C)NC(=O)[C@H](CCCN)NC(=O)[C@H](Cc4ccc(-c5ccc(C(=O)O)cc5)cc4)NC(=O)CNC(=O)[C@@H](C)N(C)C(=O)[C@H](CC(=O)O)NC(=O)[C@H]([C@@H](C)c4cccc5ccccc45)NC(=O)[C@@H]4C[C@@H](N)CN4C(=O)CNC(=O)[C@H](Cc4ccc(C(=O)O)cc4)NC(=O)[C@H](Cc4c[nH]c5ccccc45)NC3=O)cn2)CC1` [Example 182] (cyclo([X1]W[Phe(4-COOH)]G[Pro(4R-NH2)][1Nal(3S-Me)]D[dNMeA]G[Bip(4'-COOH)][Orn]L[dA][hCha])): 0.013 nM. Take `CC(=O)N1CCN(c2ccc(C[C@@H]3NC(=O)[C@H](CCc4cncc(C#N)c4)NC(=O)[C@@H](C)NC(=O)[C@H](CC(C)C)NC(=O)[C@H](CCC(N)=O)NC(=O)[C@H](Cc4ccc(-c5ccc(C(=O)O)cc5)cc4)NC(=O)CNC(=O)[C@@H](C)N(C)C(=O)[C@H](CC(=O)O)NC(=O)[C@H]([C@@H](C)c4cccc5ccccc45)NC(=O)[C@@H]4C[C@@H](N)CN4C(=O)CNC(=O)[C@H](Cc4ccc(C(=O)O)cc4)NC(=O)[C@H](Cc4c[nH]c5ccccc45)NC3=O)cn2)CC1` [Example 183] (cyclo([X1]W[Phe(4-COOH)]G[Pro(4R-NH2)][1Nal(3S-Me)]D[dNMeA]G[Bip(4'-COOH)]QL[dA][h3Pal(5-CN)])): the IC50 worked out at 0.013 nM. Next, `CC(C)C[C@@H]1NC(=O)[C@H](CCCCN)NC(=O)[C@H](Cc2ccc(-c3ccc(C(=O)O)cc3)cc2)NC(=O)CNC(=O)[C@@H](C)N(C)C(=O)[C@H](CC(=O)O)NC(=O)[C@H]([C@@H](C)c2c[nH]c3cccc(F)c23)NC(=O)[C@@H]2C[C@@H](N)CN2C(=O)CNC(=O)[C@H](Cc2ccc(C(=O)O)cc2)NC(=O)[C@H](Cc2c[nH]c3cc(Cl)ccc23)NC(=O)[C@H](Cc2ccc(-c3ccc(C(=O)O)cc3)cc2)NC(=O)[C@H](CCc2ccc(O)cc2)NC(=O)[C@@H](C)NC1=O` [Example 184] (cyclo([Bip(4'-COOH)][Trp(6-Cl)][Phe(4-COOH)]G[Pro(4R-NH2)][Trp(βS-Me,4-F)]D[dNMeA]G[Bip(4'-COOH)]KL[dA][hTyr])): 0.018 nM; `CC(C)C[C@@H]1NC(=O)[C@H](CCCCN)NC(=O)[C@H](Cc2ccc(-c3ccc(C(=O)O)cc3)cc2)NC(=O)CNC(=O)[C@@H](C)N(C)C(=O)[C@H](CC(=O)O)NC(=O)[C@H]([C@@H](C)c2c[nH]c3cccc(F)c23)NC(=O)[C@@H]2C[C@@H](N)CN2C(=O)CNC(=O)[C@H](Cc2ccc(C(=O)O)cc2)NC(=O)[C@H](Cc2c[nH]c3c(F)cccc23)NC(=O)[C@H](Cc2ccc(-c3ccc(C(=O)O)cc3)cc2)NC(=O)[C@H](CCc2ccc(O)cc2)NC(=O)[C@@H](C)NC1=O` [Example 185] (cyclo([Bip(4'-COOH)][Trp(7-F)][Phe(4-COOH)]G[Pro(4R-NH2)][Trp(βS-Me,4-F)]D[dNMeA]G[Bip(4'-COOH)]KL[dA][hTyr])): 0.024 nM. Next, `Cc1cccc2c(C[C@@H]3NC(=O)[C@H](Cc4ccc(-c5ccc(C(=O)O)cc5)cc4)NC(=O)[C@H](CCc4ccc(O)cc4)NC(=O)[C@@H](C)NC(=O)[C@H](CC(C)C)NC(=O)[C@H](CCCCN)NC(=O)[C@H](Cc4ccc(-c5ccc(C(=O)O)cc5)cc4)NC(=O)CNC(=O)[C@@H](C)N(C)C(=O)[C@H](CC(=O)O)NC(=O)[C@H]([C@@H](C)c4c[nH]c5cccc(F)c45)NC(=O)[C@@H]4C[C@@H](N)CN4C(=O)CNC(=O)[C@H](Cc4ccc(C(=O)O)cc4)NC3=O)c[nH]c12` [Example 186] (cyclo([Bip(4'-COOH)][Trp(7-Me)][Phe(4-COOH)]G[Pro(4R-NH2)][Trp(βS-Me,4-F)]D[dNMeA]G[Bip(4'-COOH)]KL[dA][hTyr])): 0.038 nM; `CC(=O)NCCCC[C@H]1NC(=O)[C@H](CC(C)C)NC(=O)[C@H](CCCCN)NC(=O)[C@H](Cc2ccc(-c3ccc(C(=O)O)cc3)cc2)NC(=O)CNC(=O)[C@@H](C)N(C)C(=O)[C@H](CC(=O)O)NC(=O)[C@H]([C@@H](C)c2c[nH]c3cccc(F)c23)NC(=O)[C@@H]2C[C@@H](N)CN2C(=O)CNC(=O)[C@H](Cc2ccc(C(=O)O)cc2)NC(=O)[C@H](Cc2c[nH]c3ccccc23)NC(=O)[C@H](Cc2ccc(-c3ccc(C(=O)O)cc3)cc2)NC(=O)[C@H](CCc2ccc(O)cc2)NC1=O` [Example 187] (cyclo([Bip(4'-COOH)]W[Phe(4-COOH)]G[Pro(4R-NH2)][Trp(βS-Me,4-F)]D[dNMeA]G[Bip(4'-COOH)]KL[dK](Ac)[hTyr])): 0.009 nM. In the case of `C[C@@H]1C(=O)NCC(=O)N[C@@H](Cc2ccc(-c3ccc(C(=O)O)cc3)cc2)C(=O)N[C@@H](Cn2ncc3ccccc32)C(=O)NCC(=O)N[C@H](CCN)C(=O)N[C@@H](CCC2CCCCC2)C(=O)N[C@@H](Cc2ccc(C34CC(C(=O)O)(C3)C4)cc2)C(=O)N[C@@H](Cc2c[nH]c3ccccc23)C(=O)N[C@@H](Cc2ccc(C(=O)O)cc2)C(=O)NCC(=O)N2C[C@H](N)C[C@H]2C(=O)N[C@@H]([C@@H](C)c2cccc3ccccc23)C(=O)N[C@@H](CC(=O)O)C(=O)N1C` [Example 188] (cyclo([X6]W[Phe(4-COOH)]G[Pro(4R-NH2)][1Nal(3S-Me)]D[dNMeA]G[Bip(4'-COOH)][Ala(indazol-1-yl)]G[dDab][hCha])), the half-maximal inhibitory concentration (IC50) turned out to be 0.016 nM. On to `C[C@@H]1C(=O)NCC(=O)N[C@@H](Cc2ccc(-c3ccc(C(=O)O)cc3)cc2)C(=O)N[C@@H](CC2CCCCC2)C(=O)NCC(=O)N[C@H](CCN)C(=O)N[C@@H](CCC2CCCCC2)C(=O)N[C@@H](Cc2ccc(C34CC(C(=O)O)(C3)C4)cc2)C(=O)N[C@@H](Cc2c[nH]c3ccccc23)C(=O)N[C@@H](Cc2ccc(C(=O)O)cc2)C(=O)NCC(=O)N2C[C@H](N)C[C@H]2C(=O)N[C@@H]([C@@H](C)c2cccc3ccccc23)C(=O)N[C@@H](CC(=O)O)C(=O)N1C` [Example 189] (cyclo([X6]W[Phe(4-COOH)]G[Pro(4R-NH2)][1Nal(3S-Me)]D[dNMeA]G[Bip(4'-COOH)][Cha]G[dDab][hCha])), for which the IC50 came to 0.019 nM. `C[C@@H]1C(=O)NCC(=O)N[C@@H](Cc2ccc(-c3ccc(C(=O)O)cc3)cc2)C(=O)N[C@@H](CC2CCCCC2)C(=O)NCC(=O)N[C@H](CCN)C(=O)N[C@@H](CCc2ccc(O)cc2)C(=O)N[C@@H](Cc2ccc(C34CC(C(=O)O)(C3)C4)cc2)C(=O)N[C@@H](Cc2c[nH]c3ccccc23)C(=O)N[C@@H](Cc2ccc(C(=O)O)cc2)C(=O)NCC(=O)N2C[C@H](N)C[C@H]2C(=O)N[C@@H]([C@@H](C)c2cccc3ccccc23)C(=O)N[C@@H](CC(=O)O)C(=O)N1C` [Example 190] (cyclo([X6]W[Phe(4-COOH)]G[Pro(4R-NH2)][1Nal(3S-Me)]D[dNMeA]G[Bip(4'-COOH)][Cha]G[dDab][hTyr])): the IC50 was 0.018 nM.
